Reference: patent publication US6143722A, “Heptapeptide oxytocin analogues” (Ferring, B.V., priority 1996, dated 2000)
Like-named read-outs stand apart in the source and are kept apart here. *1 amine or outer side, *2 acyl side, *3 side chain or, on linkers, in order; H or OH if unused. Where a SMILES comes first, the peptide text is derived from it. Bridges are numbered along the chain shown (N, C = ends). [ ]: non-standard residue; d: D form. ξ: configuration not given here. d2Nal = N[C@H](Cc1ccc2ccccc2c1)C(=O)O; aIle = CC[C@@H](C)[C@H](N)C(=O)O; hCys = N[C@@H](CCS)C(=O)O; ξNMeOrn = CNC(CCCN)C(=O)O; X1 = O=C(CC[*:2])[*:1]

Columns and labels:
[1] = target: T1, Recombinant human oxytocin receptors (Homo sapiens, UniProt P30559); experiment: Oxytocin receptor binding assay ([125I]-oxytocin, membrane fraction); settings: recombinant human oxytocin receptors expressed in CHO or HEK293 cells, mean ± SEM
T1 construct: expressed in transfected cells; host or cells: CHO or HEK293 cells (membrane fraction)
T1 sequence (P30559 1-389): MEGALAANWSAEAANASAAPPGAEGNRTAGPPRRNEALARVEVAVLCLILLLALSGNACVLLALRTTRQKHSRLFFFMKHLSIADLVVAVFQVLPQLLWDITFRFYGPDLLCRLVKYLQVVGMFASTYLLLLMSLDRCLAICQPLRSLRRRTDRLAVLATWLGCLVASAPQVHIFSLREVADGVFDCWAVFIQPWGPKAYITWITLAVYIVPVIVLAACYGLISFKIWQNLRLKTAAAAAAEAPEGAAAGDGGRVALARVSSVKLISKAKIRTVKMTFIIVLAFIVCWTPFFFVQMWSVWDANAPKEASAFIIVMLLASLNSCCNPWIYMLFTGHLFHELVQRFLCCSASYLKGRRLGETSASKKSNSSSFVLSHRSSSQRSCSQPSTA
Method: i) Oxytocin receptor binding assay
Recombinant human oxytocin receptors were expressed in either CHO or HEK293 cells using standard molecular biological techniques. A membrane fraction was prepared and incubated in the presence of [^125 I]-oxytocin and varying concentrations of heptapeptide analogue. Membranes were then isolated by filtration and counted for radioactivity to determine oxytocin binding. An inhibition constant Ki was determined for the analogue.

[2] = pH 4.5
Method: (§1) Solutions of the heptapeptide analogues of the present invention were prepared with compositions representative of aqueous formulations. The solutions were stored for several weeks at 50° C. and aliquots were withdrawn periodically for analysis by HPLC. Reference peptides were studied in parallel. Degradation was determined as the loss of peptide (% by weight per week), independent of the nature of the decomposition products.

[3] = tested on: Uterus muscle tissue from women in late pregnancy; experiment: Antagonist effect in vitro in a human uterus model (oxytocin-induced contraction of uterus muscle strips); format: cell-based; settings: concentration of antagonist reducing the oxytocin response to 50% of control; isolated human uterus strips
Method: ii) Antagonist effect in vitro in a human uterus model
Uterus muscle tissue from women in late pregnancy undergoing Caesarean section was cut into strips which were mounted in a tissue bath filled with Krebs-Ringer buffer and oxygenated with carbogen (95% O2 +5% CO2) gas. Changes in isometric muscle tension detected with a tension transducer were recorded on a Grass polygraph.
The concentration-effect curve of oxytocin was recorded. The effect measured in this case corresponds to the net value of the integrated contraction curve during the 10 minute period following agonist (i.e. oxytocin) administration. A concentration of oxytocin giving at least half-maximal response was selected. This concentration of agonist was administered to the tissue in the presence of different concentrations of antagonist heptapeptide analogue and the response was recorded. The concentration of antagonist required to reduce the response to 50% of its control value was determined by regression analysis and is given here as an IC50 value. [IC50 value=concentration of antagonist required to reduce the effect of a given agonist dose by 50%].

[4] = tested on: myometrium; format: in vivo, Sprague Dawley rats; settings: for ID50, rat model: in vivo
Method: Sprague Dawley rats (ca. 250 g) in natural estrus were anaesthetised with Inactin (0.5 mg/100 g body weight, i.p.). The activity of the myometrium was measured with the aid of a catheter fixed in the uterine cavity and filled with modified Lockes solution. The catheter was connected to a Statham P23D force transducer and the contractions were recorded on a Grass polygraph (model 7D).
The dose-response curve for oxytocin (2×10^-4 -5×10^-3 μmol/kg) was recorded. In this case the response was quantified by integration of the curve during the 15 minutes following agonist injection. A dose of oxytocin giving an effect corresponding to an intralumenar contraction pressure of 10-30 mm Hg and within the linear section of the curve was selected. This dose of oxytocin was administered to the animal in conjunction with at least two different doses of antagonist and the effect was recorded. The dose of antagonist which reduces the effect of the agonist to 50% of tis control value was determined by interpolation and is given here as an ID50 value. [ID50 value=dose of antagonist required to reduce the effect of a given agonist dose by 50%].
The duration of action of the antagonists was also determined in this model. An oxytocin dose was selected (2×10^-4 -5×10^-3μmol/kg) giving an effect corresponding to half the maximum effect (this dose is the ED50). The effect determined here is the same as for the ID50 determination defined above. An antagonist dose was selected (8×10^-4 -4×10^-3 μmol/kg) so as to give at least 50% inhibition of the response to the agonist. At the beginning of the experiment, single doses of the agonist and antagonist were co-administered. At 20 minute intervals thereafter, doses of the agonist alone were administered and the response was measured. […] [t75 value=time period required for the effectiveness of a single dose to decline by 75%].

[5] = Evaluation of stability in aqueous solution (HPLC); settings: Isotonic citrate/phosphate buffer, pH 4.5; stored at 50° C.; loss of peptide by HPLC
Method: as §1

Compound | Ki [1] [nM] | Degradation at 50° C. (wt %/week) [2] [wt %/week] | Degradation at 50° C. (wt %/week) [5] [wt %/week] | other results
CC[C@H](C)[C@@H]1NC(=O)[C@@H](Cc2c[nH]c3ccccc23)NC(=O)CCSCC[C@@H](C(=O)N(C)[C@H](CO)CCCN)NC(=O)[C@H](CC(N)=O)NC(=O)[C@H](C(C)C)NC1=O [III] | 0.8 ± 0.3 | 0.7 |  | 
CC[C@H](C)[C@@H]1NC(=O)[C@@H](Cc2c[nH]c3ccccc23)NC(=O)CCSCC[C@@H](C(=O)N(C)[C@H](CO)CCCN)NC(=O)[C@H](CC(N)=O)NC(=O)[C@H](CC(C)C)NC1=O [II] | 3.2 ± 0.75 |  |  | 
CC[C@H](C)[C@@H]1NC(=O)[C@@H](Cc2c[nH]c3ccccc23)NC(=O)CCSCC[C@@H](C(=O)N(C)[C@H](CO)CCCN)NC(=O)[C@H](CC(N)=O)NC(=O)[C@H](CC2CCCCC2)NC1=O [IV] | 7 ± 1.85 |  |  | 
CC[C@@H](C)[C@@H]1NC(=O)[C@H]([C@@H](C)CC)NC(=O)[C@@H](Cc2c[nH]c3ccccc23)NC(=O)CCSCC[C@@H](C(=O)N(C)[C@H](CO)CCCN)NC(=O)[C@H](CC(N)=O)NC1=O [Peptide I] | 0.25 ± 0.16 | 0.4 |  | IC50 [3]: 5 ± 1 nM; t75, rat model ([4]; duration of action: time for the effectiveness of a single dose to decline by 75%, antagonist dose 8×10^-4 -4×10^-3 μmol/kg): 169 ± 2 min; ID50, rat model [4]: 2.9 ± 0.3 nmol/kg
CCC(CC)[C@@H]1NC(=O)[C@H]([C@@H](C)CC)NC(=O)[C@@H](Cc2c[nH]c3ccccc23)NC(=O)CCSCC[C@@H](C(=O)N(C)[C@H](CO)CCCN)NC(=O)[C@H](CC(N)=O)NC1=O [VII] | 2.4 ± 0.85 |  |  | 
CC[C@@H](C)[C@@H]1NC(=O)[C@H]([C@@H](C)CC)NC(=O)[C@@H](Cc2ccc3ccccc3c2)NC(=O)CCSCC[C@@H](C(=O)N(C)[C@H](CO)CCCN)NC(=O)[C@H](CC(N)=O)NC1=O [VI] | 0.1 | 1.2 |  | 
CC[C@H](C)[C@@H]1NC(=O)[C@H]([C@@H](C)CC)NC(=O)[C@@H](Cc2c[nH]c3ccccc23)NC(=O)CCSCC[C@@H](C(=O)N(C)[C@H](CO)CCCN)NC(=O)[C@H](CC(N)=O)NC1=O [V] | 1.4 ± 0.15 |  |  | 
CC[C@@H](C)[C@@H]1NC(=O)[C@H]([C@@H](C)CC)NC(=O)[C@@H](Cc2c[nH]c3ccccc23)NC(=O)CCSCC[C@@H](C(=O)N(C)C(CCCN)C(N)=O)NC(=O)[C@H](CC(N)=O)NC1=O (some centres unmarked) [r-IX, reference compound] ([dW]I[aIle]N[hCys][ξNMeOrn]-NH2; linker N-5 via X1) |  |  | 2.9 | ID50, rat model [4]: 2.9 ± 0.3 nmol/kg
CC[C@@H](C)[C@@H]1NC(=O)[C@H]([C@@H](C)CC)NC(=O)[C@@H](Cc2ccc3ccccc3c2)NC(=O)CCSCC[C@@H](C(=O)N(C)C(CCCN)C(N)=O)NC(=O)[C@H](CC(N)=O)NC1=O (some centres unmarked) [r-XI] ([d2Nal]I[aIle]N[hCys][ξNMeOrn]-NH2; linker N-5 via X1) |  |  | 4.0 | 
CC[C@H](C)[C@@H]1NC(=O)[C@@H](Cc2c[nH]c3ccccc23)NC(=O)CCSCC[C@@H](C(=O)N(C)C(CCCN)C(N)=O)NC(=O)[C@H](CC(N)=O)NC(=O)[C@H](C(C)C)NC1=O (some centres unmarked) [r-X] ([dW]IVN[hCys][ξNMeOrn]-NH2; linker N-5 via X1) |  |  | 4.3 | 
